From patent US7351861B2 (priority 2002, dated 2008) come the findings set out here.

Common to all, as to assay type: cell-based, Yersinia pseudotuberculosis
Assay [1] concerns reporter gene signal from pIB102FL (lcrF-luxAB).
The test system of assay [2] is luciferase light signal from pIB102AL (luxAB downstream of the promoter for YerA).
Assay [3] has as its system Yop secretion from the wild-type strain pIB102EL. As to conditions: for Inhibition of Yop secretion into the surrounding medium (in words): supernatant after 3 h at 37° C., Western analysis.
Assay [4] has as its system luciferase light signal from pIB29EL (yopE-luxAB). The experiment in a line: microbe, parasite or virus in culture. As to conditions: pIB29EL; for Inhibition (%) of the luciferase light signal: Table 2A.
The subject of assay [5] is reporter gene signal from pIB102FΔhlhL (lcrFΔhlh-luxAB).
Assay [6] concerns luciferase light signal from pIB102EL (yopE-luxAB, wild-type). Put plainly: microbe, parasite or virus in culture. As to conditions: pIB102EL; FIG. 5C.

Where two headings read alike, the source gives them in different places.

`O=C(Nc1ccc(Cl)c(Cl)c1)c1cc(Cl)ccc1NS(=O)(=O)c1cccc2nsnc12` [Compound 5]: the “Effect on reporter gene signal (in words)” value (“Effect” for short) in assay [1] was “minor inhibition”; in assay [5] it was “modest enhancement”. The “Selectivity between pIB102EL (YopE promoter) and control strain pIB102AL (in words)” value (“Selectivity between pIB102EL” for short) in assay [2] is listed as “stronger inhibitory effect on the wild-type strain pIB102EL”. Also, the “Inhibition of Yop secretion into the surrounding medium (in words)” value (shortened to “Inhibition … (in words)”) in assay [3] was “dose dependent inhibition of secretion”. Besides, the “Inhibition (%) of the luciferase light signal” value amounted to 35% in assay [4] (10 μM), 60% in assay [4] (20 μM), 69% in assay [4] (50 μM) and 66% in assay [4] (100 μM).
Consider `O=C(N/N=C/c1cc(Br)cc(Br)c1O)c1ccc([N+](=O)[O-])cc1` [Compound 3], for which the “Effect” value in assay [1] was “enhance the reporter gene signal”; in assay [5], “more than doubled”. The “Selectivity between pIB102EL” value in assay [2] is “stronger inhibitory effect on the wild-type strain pIB102EL”. In addition, the “Inhibition … (in words)” value in assay [3] is “efficiently inhibits Yop secretion in a dose dependent manner”. In addition, the “Total Yop content, bacteria and surrounding media (in words)” value in assay [3] (various concentrations incl. 50 and 100 μM lanes, FIG. 6B) was “Yops can be observed at concentrations that completely inhibit secretion”. Also, the “Inhibition (%) of the luciferase light signal” value amounted to 12% in assay [4] (10 μM), 48% in assay [4] (20 μM), 85% in assay [4] (50 μM) and 86% in assay [4] (100 μM). In addition, in assay [4], the “Potency within the class of acylated hydrazones of salicylic aldehydes from primary screening (in words)” value is “most potent”.
Take `CC(=O)Oc1c(I)cc(I)cc1C(=O)Nc1ccc(Cl)cc1` [Compound 4, 2-acetoxy-4′-chloro-3,5-diiodobenzanilide]: the “Effect” value in assay [1], in assay [6], in assay [2] and in assay [5] was “inhibits the reporter gene signal” throughout. Moreover, in assay [2], the “Selectivity between pIB102EL” value is listed as “no selectivity”. Further, in assay [3], the “Inhibition … (in words)” value is given as “dose dependent inhibition of secretion”. The inhibition at 5 µM was 15% in assay [4] (Yersinia pseudotuberculosis, read-out: Inhibition (%) of the luciferase light signal, 5 μM (first of two columns headed 5), Table 2B) and 45% in assay [4] (Yersinia pseudotuberculosis, read-out: Inhibition (%) of the luciferase light signal, 5 μM (second of two columns headed 5), Table 2B). In addition, the inhibition at 10 µM in assay [4] (Yersinia pseudotuberculosis, read-out: Inhibition (%) of the luciferase light signal, 10 μM, Table 2B) came to 81%. Besides, the inhibition at 20 µM in assay [4] (Yersinia pseudotuberculosis, read-out: Inhibition (%) of the luciferase light signal, 20 μM, Table 2B) was 96%.

The inhibition is the relative decrease from the control value, in per cent.
